From PubChem BioAssay (NCI)
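Values below derive from 48-hour exposures of cells grown in 96-well plates, with endpoints linearly interpolated between the two concentrations bracketing the appropriate inhibition level. The concentration for 50% growth inhibition is given as GI50. At the TGI there is no net growth.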

Columns and labels:
Test in all cases: NCI anticancer screen, dose series, 48 h
NCI-H23 lung = system: NCI-H23 lung
NCI-H460 lung = system: NCI-H460 lung
NCI-H522 lung = system: NCI-H522 lung
NCI/ADR-RES ovarian = system: NCI/ADR-RES ovarian
OVCAR-3 ovarian = system: OVCAR-3 ovarian
OVCAR-4 ovarian = system: OVCAR-4 ovarian
OVCAR-5 ovarian = system: OVCAR-5 ovarian
OVCAR-8 ovarian = system: OVCAR-8 ovarian
PC-3 prostate = system: PC-3 prostate
RPMI-8226 leukemia = system: RPMI-8226 leukemia
RXF 393 renal = system: RXF 393 renal
SF-268 CNS = system: SF-268 CNS
SF-295 CNS = system: SF-295 CNS
SF-539 CNS = system: SF-539 CNS
SK-MEL-2 melanoma = system: SK-MEL-2 melanoma
SK-MEL-28 melanoma = system: SK-MEL-28 melanoma
SK-MEL-5 melanoma = system: SK-MEL-5 melanoma
SK-OV-3 ovarian = system: SK-OV-3 ovarian
SN12C renal = system: SN12C renal
SNB-19 CNS = system: SNB-19 CNS
SNB-75 CNS = system: SNB-75 CNS
SR leukemia = system: SR leukemia
SW-620 colon = system: SW-620 colon
T-47D breast = system: T-47D breast
TK-10 renal = system: TK-10 renal
U251 CNS = system: U251 CNS
UACC-257 melanoma = system: UACC-257 melanoma
UACC-62 melanoma = system: UACC-62 melanoma
UO-31 renal = system: UO-31 renal

Compound: CCCCN(CCCC)CC(O)c1ccc(OCc2ccccc2)c2ccccc12 (stereo not drawn)
- GI50 (NCI-H23 lung): 3.01 µM
- TGI (NCI-H23 lung): 13 µM
- GI50 (NCI-H460 lung): 3.11 µM
- TGI (NCI-H460 lung): 10.5 µM
- GI50 (NCI-H522 lung): 1.72 µM
- TGI (NCI-H522 lung): 4.37 µM
- GI50 (NCI/ADR-RES ovarian): 3.74 µM
- TGI (NCI/ADR-RES ovarian): 16 µM
- GI50 (OVCAR-3 ovarian): 4.9 µM
- TGI (OVCAR-3 ovarian): 18.3 µM
- GI50 (OVCAR-4 ovarian): 6.22 µM
- TGI (OVCAR-4 ovarian): 17.4 µM
- GI50 (OVCAR-5 ovarian): 3.86 µM
- TGI (OVCAR-5 ovarian): 16.2 µM
- GI50 (OVCAR-8 ovarian): 11 µM
- TGI (OVCAR-8 ovarian): 24.4 µM
- GI50 (PC-3 prostate): 2.9 µM
- TGI (PC-3 prostate): 15.6 µM
- GI50 (RPMI-8226 leukemia): 2.22 µM
- TGI (RPMI-8226 leukemia): 5.81 µM
- GI50 (RXF 393 renal): 2.39 µM
- TGI (RXF 393 renal): 4.93 µM
- GI50 (SF-268 CNS): 7.07 µM
- TGI (SF-268 CNS): 24.2 µM
- GI50 (SF-295 CNS): 3.13 µM
- TGI (SF-295 CNS): 11.6 µM
- GI50 (SF-539 CNS): 5.09 µM
- TGI (SF-539 CNS): 17 µM
- GI50 (SK-MEL-2 melanoma): 3.39 µM
- TGI (SK-MEL-2 melanoma): 12 µM
- GI50 (SK-MEL-28 melanoma): 6.08 µM
- TGI (SK-MEL-28 melanoma): 18.8 µM
- GI50 (SK-MEL-5 melanoma): 1.88 µM
- TGI (SK-MEL-5 melanoma): 3.69 µM
- GI50 (SK-OV-3 ovarian): 8.31 µM
- TGI (SK-OV-3 ovarian): 22.7 µM
- GI50 (SN12C renal): 3.25 µM
- TGI (SN12C renal): 14.9 µM
- GI50 (SNB-19 CNS): 3.79 µM
- TGI (SNB-19 CNS): 16.3 µM
- GI50 (SNB-75 CNS): 3.6 µM
- TGI (SNB-75 CNS): 15.8 µM
- GI50 (SR leukemia): 2.75 µM
- TGI (SR leukemia): 8.4 µM
- GI50 (SW-620 colon): 3.32 µM
- TGI (SW-620 colon): 14.5 µM
- GI50 (T-47D breast): 3.74 µM
- TGI (T-47D breast): 14.9 µM
- GI50 (TK-10 renal): 2.15 µM
- TGI (TK-10 renal): 5.24 µM
- GI50 (U251 CNS): 4.88 µM
- TGI (U251 CNS): 17.1 µM
- GI50 (UACC-257 melanoma): 5.21 µM
- TGI (UACC-257 melanoma): 17.2 µM
- GI50 (UACC-62 melanoma): 2.33 µM
- TGI (UACC-62 melanoma): 11.2 µM
- GI50 (UO-31 renal): 0.974 µM
- TGI (UO-31 renal): 7.13 µM
